Assay results: patent US5670364A, “A83543 compounds and process for production thereof” (priority 1995, dated 1997)
Values after ≈ are worked out from the molar mass of the structure shown.

Key:
German Cockroach = experiment: Mite/Insect Screen, German cockroach (GECR); type: in vivo; details: Blattella germanica
Description: (§1) The Formula 2 compounds were tested for miticidal and insecticidal activity in the following mite/insect screen. Each test compound was formulated by dissolving the compound in an acetone-alcohol (1:1) mixture containing 23 g of TOXIMUL R (sulfonate/nonionic emulsifier blend) and 13 g of TOXIMUL S (sulfonate/nonionic emulsifier blend) per liter. These mixtures were then diluted with water to give the indicated concentrations.
(§2) Two-spotted spider mites and cotton aphids were introduced on squash cotyledons and allowed to establish on both leaf surfaces. The leaves were then sprayed with 5 ml of test solutions using a DeVilbiss atomizing sprayer at 10 psi. Both surfaces of the leaves were covered until run off and then allowed to dry for one hour. After standard exposure periods percent mortality was evaluated. Additional insects were evaluated using similar formulations and evaluation procedures.

Two-spotted Spider Mite = experiment: Mite/Insect Screen, two-spotted spider mite (TSSM); type: in vivo; details: Tetranychus urticae, 4-5 day; for inhibition at 50 ppm: 50 ppm (rate in parenthesis)
Description: as §1, §2

Beet Armyworm = experiment: Mite/Insect Screen, beet armyworm (BAW); type: in vivo, Spodoptera exiqua; details: Spodoptera exigua, 144 h, 6 day
Description: as §1, §2

blowfly larvae = experiment: in vitro activity against blowfly larvae; type: in vivo; details: 48 hours
Description: (§3) The Formula 2 compounds are also active against members of the insect order Diptera. Tables XI and XII summarize the in vitro studies of the Formula 2 compounds against blowfly larvae and adult stable fly at 48 hours.

Rootknot Nematode = experiment: Mite/Insect Screen, rootknot nematode (NEM); type: in vivo, Meiiiodyne spp.; details: 264 h, 11 day
Description: as §1, §2

Cotton Aphid = experiment: Mite/Insect Screen, cotton aphid (CA); type: in vivo, Aphis gossypii Glover; details: Aphis gossypii, 4-5 day
Description: as §1, §2

Tobacco Budworm = experiment: Mite/Insect Screen, tobacco budworm (TBW); type: in vivo; details: Heliothis virescens, 144 h, 6 day; for inhibition at 50 ppm: 50 ppm (rate in parenthesis)
Description: as §1, §2

Aster Leafhopper = experiment: Mite/Insect Screen, aster leafhopper (ALH); type: in vivo; details: Macrosteles fascifrons, 24 hr
Description: as §1, §2

neonate tobacco budworm = experiment: LD50 against neonate tobacco budworm, petri dish assay; type: in vivo; details: Heliothis virescens; mean of two tests; mortality evaluated at 24 and 48 hours
Description: Formula 2 compounds were evaluated in the following assay to determine the LD50 against neonate tobacco budworm (Heliothis virescens). A petri dish (100 mm×20 mm) is inverted and the lid lined with a #1 qualitative filter paper. Ten neonate larvae are placed in each dish and a 1 ml test solution is pipetted onto the insects. The petri dish bottom is then placed on the lid to contain the larvae. At 1 hour after treatment, a small piece of Heliothis diet (modified slurry, Southland Products, Lake Village, AR) is added to each dish. The mortality is evaluated at 24 and 48 hours. The tests were run in triplicate.

Southern Corn Rootworm = experiment: Mite/Insect Screen, southern corn rootworm (SCRW); type: in vivo, Diabrotica undecimpunctata howardi; details: 264 h, 11 day
Description: as §1, §2

adult stable fly = experiment: in vitro activity against adult stable fly; type: in vivo; details: Stomoxys calcitrans, 48 hours
Description: as §3

[1] = tested on: catechol O-methyltransferase; details: cited from earlier work
[2] = tested on: macrocin O-methyltransferase; details: cited from earlier work
[3] = tested on: histamine N-methyltransferase; details: cited from earlier work
[4] = tested on: S-adenosyl-methionine-dependent O-methyltransferase; details: avermectin-producing strains; cited from earlier work
[5] = tested on: norepinephrine N-methyltransferase; details: cited from earlier work

| Compound | inhibition at 200 ppm (German Cockroach; 168 h, 7 day) [%] | inhibition at 400 ppm (German Cockroach; 168 h, 7 day) [%] | inhibition at 200 ppm (German Cockroach; 504 h, 21 day) [%] | inhibition at 400 ppm (German Cockroach; 504 h, 21 day) [%] | inhibition at 200 ppm (Two-spotted Spider Mite) [%] | inhibition at 400 ppm (Two-spotted Spider Mite) [%] | inhibition at 200 ppm (Beet Armyworm) [%] | inhibition at 400 ppm (Beet Armyworm) [%] | inhibition at 200 ppm (Rootknot Nematode) [%] | inhibition at 400 ppm (Rootknot Nematode) [%] | inhibition at 200 ppm (Cotton Aphid) [%] | inhibition at 400 ppm (Cotton Aphid) [%] | inhibition at 400 ppm (Tobacco Budworm) [%] | inhibition at 200 ppm (Aster Leafhopper) [%] | inhibition at 400 ppm (Aster Leafhopper) [%] | LC50 (neonate tobacco budworm) [µg/mL] | inhibition at 200 ppm (Southern Corn Rootworm) [%] | inhibition at 400 ppm (Southern Corn Rootworm) [%] | inhibition at 50 ppm (Two-spotted Spider Mite) [%] | inhibition at 50 ppm (Tobacco Budworm) [%] | further results |
| --- | --- | --- | --- | --- | --- | --- | --- | --- | --- | --- | --- | --- | --- | --- | --- | --- | --- | --- | --- | --- | --- |
| CCC1CCCC(OC2CCC(N(C)C)C(C)O2)C(C)C(=O)C2=CC3C(C=CC4CC(OC5OC(C)C(O)C(OC)C5OC)CC43)C2CC(=O)O1 (stereo not drawn) [A83543K] | 0 | 0 | 0 | 80 | 90 | 100 | 100 | 100 | 0 | 0 | 0 | 0 | 100 | 100 | 100 | 3.5 (≈ 4.88 µM) | 0 | 100 | – | – | % mortality (blowfly larvae; 2.5 ppm): 40%; inhibition at 200 ppm (Tobacco Budworm): 100%; mortality at 2.5 ppm (adult stable fly; 2.5 ppm): 90% |
| CCC1CCCC(OC2CCC(N(C)C)C(C)O2)C(C)C(=O)C2=CC3C(C=C(C)C4CC(OC5OC(C)C(O)C(OC)C5OC)CC43)C2CC(=O)O1 (stereo not drawn) [A83543O] | 0 | 0 | 20 | 100 | 100 | 100 | 100 | 100 | 0 | 0 | 0 | 100 | 100 | 100 | 100 | 1.4 (≈ 1.91 µM) | 0 | 0 | – | – | inhibition at 200 ppm (Tobacco Budworm): 100%; mortality at 5 ppm (adult stable fly; 5 ppm): 100% |
| CCC1CCCC(OC2CCC(N(C)C)C(C)O2)C(C)C(=O)C2=CC3C(C=CC4CC(OC5OC(C)C(O)C(O)C5OC)CC43)C2CC(=O)O1 (stereo not drawn) [A83543P] | 0 | 0 | 20 | 0 | – | 100 | 100 | 100 | 0 | 0 | 0 | 0 | 100 | 0 | 0 | > 64 | 0 | 0 | 100 | 0 | % mortality (blowfly larvae; 10.0 ppm): 10%; mortality at 10 ppm (adult stable fly): 90% |
| CCC1CCCC(OC2CCC(N(C)C)C(C)O2)C(C)C(=O)C2=CC3C(C=CC4CC(OC5OC(C)C(O)C(OC)C5O)CC43)C2CC(=O)O1 (stereo not drawn) [A83543U] | 0 | 0 | 0 | 0 | 0 | 0 | 100 | 100 | 0 | 0 | 0 | 0 | 100 | 100 | 100 | 22 (≈ 31.3 µM) | 0 | 0 | – | 100 | – |
| CCC1CCCC(OC2CCC(N(C)C)C(C)O2)C(C)C(=O)C2=CC3C(C=C(C)C4CC(OC5OC(C)C(O)C(O)C5OC)CC43)C2CC(=O)O1 (stereo not drawn) [A83543W] | 0 | 0 | 20 | 0 | – | 80 | 0 | 60 | 0 | 0 | 0 | 0 | 100 | 0 | 0 | > 64 | 0 | 0 | 0 | 0 | % mortality (blowfly larvae; 10.0 ppm): 0%; mortality at 10 ppm (adult stable fly): 40% |
| COC1C(OC2CC3C=CC4C5CC(=O)OC(C)CCCC(OC6CCC(N(C)C)C(C)O6)C(C)C(=O)C5=CC4C3C2)OC(C)C(O)C1OC (stereo not drawn) [A83543Y] | 0 | 0 | – | – | – | 100 | 80 | 100 | – | – | 0 | 0 | 100 | 60 | 80 | 20 (≈ 28.4 µM) | 0 | 0 | 0 | 0 | % mortality (blowfly larvae; 10.0 ppm): 100%; mortality at 10 ppm (adult stable fly): 90% |
| CCC1CCCC(OC2CCC(NC)C(C)O2)C(C)C(=O)C2=CC3C(C=CC4CC(OC5OC(C)C(O)C(OC)C5OC)CC43)C2CC(=O)O1 (stereo not drawn) [N-demethyl-K, N-demethyl-A83543K] | 0 | 0 | 20 | 60 | – | 100 | 100 | 100 | – | 100 | 0 | 0 | 100 | 100 | 100 | 9.8 (≈ 13.9 µM) | – | 60 | 0 | 100 | – |
| Nc1ncnc2c1ncn2[C@@H]1O[C@H](C[C@@H](N)CC[C@H](N)C(=O)O)[C@@H](O)[C@H]1O [Sinefungin] | – | – | – | – | – | – | – | – | – | – | – | – | – | – | – | – | – | – | – | – | inhibition of catechol O-methyltransferase [1]: effective in inhibiting; inhibition of macrocin O-methyltransferase [2]: effective in inhibiting; inhibition of histamine N-methyltransferase [3]: effective in inhibiting; inhibition of O-methyltransferase in S. avermitilis [4]: effective in inhibiting; inhibition of norepinephrine N-methyltransferase [5]: effective in inhibiting |
